Our source for the Activity and IC50 values is ChEMBL document CHEMBL2321714, “Novel Aza-resveratrol analogs: synthesis, characterization and anticancer activity against breast cancer cell lines” (Bioorg Med Chem Lett, 2013).

Calls of active or inactive are those of the source. No cut-off for these calls is given here.

Series [1] deals with MDA-MB-231. Put plainly: Cytotoxicity against human MDA-MB-231 cells at 50 uM by MTT assay. It is filed as functional. In general terms: Formazan colour is commonly taken as a measure of viable cells.
Series [2] relates to MCF-10A. Put plainly: Cytotoxicity against human MCF10A cells at 50 uM by MTT assay. Format: cell-based.
In series [3] the test system is T47D. Kind of series: Cytotoxicity against human T47D cells at 50 uM by MTT assay. It is filed as functional.
The test system of series [4] is MDA-MB-231. Put plainly: Cytotoxicity against human MDA-MB-231 cells by MTT assay. Format: functional, cell-based.
The test system of series [5] is T47D. Put plainly: Cytotoxicity against human T47D cells by MTT assay. It is filed as functional, cell-based.
For series [6], the system named is MDA-MB-231. Put plainly: Induction of autophagy in human MDA-MB-231 cells assessed as increase in Beclin-1 expression at 50 uM after 12 hrs by Western blot analysis. It is filed as functional, cell-based. For orientation: In western blotting, separated proteins are transferred to a membrane and probed.
In series [7] the test system is T47D. Put plainly: Induction of autophagy in human T47D cells assessed as increase in Beclin-1 expression at 50 uM after 12 hrs by Western blot analysis. Format: functional, cell-based.

On to `Oc1ccc(/C=N/c2ccc(F)cc2)cc1O`, for which the outcome in series [1] and in series [3] was Active. Further, the Activity result in series [2] is on record as “Non-toxic”.

Consider `Oc1ccc(/C=C/c2cc(O)cc(O)c2)cc1` [RESVERATROL], for which the IC50 is 66 µM in series [4] and 76 µM in series [5]. Moreover, the Activity in series [1] and in series [3] was 40% in each case.

`COc1ccc(/N=C/c2ccc(O)c(O)c2)cc1`: the result in series [1] and in series [3] was Active. The Activity entry in series [2] was “Non-toxic”.

Consider `Cc1ccc(/N=C/c2ccc(O)c(O)c2)cc1`, for which the IC50 in series [4] was 21 µM; in series [5] it was 32 µM. In addition, the outcome in series [6] and in series [7] was Active. For the same molecule, the Activity is 65% in series [1], “Non-toxic” in series [2] and 40% in series [3].

With `Oc1ccc(/N=C/c2ccc(O)c(O)c2)cc1`, the IC50 in series [4] was 29 µM; in series [5] it was 44 µM. Moreover, the result in series [6] and in series [7] was Active. Besides, the Activity is recorded as 65% in series [1], “Non-toxic” in series [2] and 40% in series [3].

Turning to `Oc1ccc(/C=N/c2ccc(Cl)cc2)cc1O`, the outcome in series [1] and in series [3] was Active. Further, the Activity result in series [2] is “Non-toxic”.

As for `Oc1ccc(/C=N/c2ccc3[nH]ccc3c2)cc1O`, in series [1], the result was inactive. The Activity entry in series [2] is on record as “Non-toxic”; in series [3], 40%.

By IC50 is commonly meant the concentration that gives 50% inhibition. Read a low IC50 as greater potency in that assay.
